The results in this text go back to patent publication US20250270170A1, “2,3-DIMETHOXY-5-METHYL-1,4-BENZOQUINONE ALKYL ALCOHOL DERIVATIVE AND USE THEREOF” (BEIJING ANJIANXI BIO-MEDICAL TECHNOLOGY CO., LTD., priority 2021, published 2025).

Where “and” joins values, the source holds several entries; their conditions need not be identical. Identical values can stand only once. Entries after “also recorded” stand apart in the source; their conditions may differ.

A short description of data set [1]: Example 9: body weight of A549 tumor-bearing nude mice. The data set is classed as in vivo. As to the method:
On D1 of the assay, the A549 cells in the logarithmic growth phase were collected, counted and resuspended in PBS, and the cell concentration was adjusted to 8×10^7 cells/mL. The cells were pipetted with a pipette to disperse them evenly, and the cells were put into a 50-mL centrifuge tube, which was placed in an ice box. A 1-mL syringe was used to draw the cell suspension, which was injected subcutaneously into the axilla of the front right limb of a nude mouse. Each animal was inoculated with 100 μL (8×10^6 cells/mouse) to establish an A549 transplanted tumor model in nude mice. After the inoculation, the animal status and tumor growth were regularly observed. On D18, the tumor diameter was measured using an electronic vernier caliper. The data were input into an Excel spreadsheet to calculate the tumor volume. Tumor-bearing mice in good health and with similar tumor volumes (101 to 156 mm^3) were selected and divided into groups using randomized block method. After the start of the assay, the tumor diameter was measured regularly, the tumor volume was calculated, and the animal body weight was also weighed and recorded. [table]

The subject of data set [2] is NCI-H460 cells. Put plainly: CCK-8 cell proliferation assay, NCI-H460. The conditions noted are these: Homo sapiens. The data set is classed as cell-based. On the procedure: (1) Cells in the logarithmic growth phase were taken and digested to make a cell suspension. 20 μl of the cell suspension was taken with a pipette, and added to a CountStar disposable cell counting plate for cell counting, and the counting results were recorded. The cell concentration was adjusted to 30,000 to 40,000 cells/ml (note: different cells have different growth rates, so the number of cells in each well was slightly different).
(2) A 96-well plate was taken. Since the wells in the outermost circle of the culture plate were easy to evaporate and dry, causing inaccurate volumes, and increasing errors, 100 μl of PBS was added to the wells in the outermost circle, which were not used as assay wells.
(3) The adjusted cell suspension was added to the 96-well plate, with 100 μl in each well, resulting approximately 3000 to 4000 cells in each well. The plate was placed in a 37° C. incubator under the condition of 5% CO2 for cell culture, and the drug was added when the cells adhered to the wall.
(4) Drug dilution. The concentration gradient was set as: 0 μM, 10 μM, 50 μM, 100 μM, and 200 μM, with 3 duplicates for each concentration. In addition, blank control wells containing only culture medium and drug without cells were also set.
(5) The plate was incubated in the incubator for 24 h, 48 h and 72 h, respectively. After reaching the set time point, the 96-well plate was taken out from the incubator, and 10 μl of CCK-8 reagent was added to each well, taking care to avoid bubbles. The plate was shaked to mix evenly, and put back into the incubator to culture for another 2 hours.
(6) To detect the absorbance, the 96-well plate was placed in a […], and the absorbance value (OD value) at 450 nm was detected. The data was recorded. Cell viability=(OD value of the assay well−OD value of the blank control well)/(OD value of the solvent control well−OD value of the blank control well)×100%.
(7) The data was imported into GraphPad Prism5 for plotting. The IC50 values were calculated, and the curves were drawn.

Data set [3] concerns cisplatin-induced acute kidney damage in mice. The data set can be described thus: Example 11: renal pathology (HE, PAS) and pathological scoring. Format: in vivo, C57BL/6J mice. As to conditions: bid, listed as R01. On the procedure: 42 male C57BL/6J mice (age: 6 to 8 weeks, body weight 18-20 g, certificate number: 11400700238365) were purchased from Si Pei Fu (Beijing) Biotechnology Co., Ltd., and raised in an SPF-grade animal room of the Institute of Materia Medica, Chinese Academy of Medical Sciences, at a temperature of 20 to 25° C., a relative humidity of 40% to 70%, and a cycle of 12 hours of light and 12 hours of dark. The animals had free access to water and food. After 3 days of normal feeding, mice with good physical conditions after the veterinary examination were selected for this assay. Before grouping, a marker was used to mark on the base of the animals' tail. After grouping, each animal was marked with an ear cutout (7 mice in each group).
Assay animals: 42 7-week-old male C57 mice were used for animal testing after an adaptive feeding.
Group 1: blank control group;
The preparation of the R01 formulation administration test solution was the same as that in Example 5: an appropriate amount of the R01 formulation was weighed according to the three dosages set in the assay, respectively, and an appropriate volume of 0.5% CMC-Na aqueous solution was added. The mixture was vortexed and sonicated until mixed evenly, to give the administration test solutions with concentrations of […], respectively, which were ready for use.
Animal testing period: 7 days (excluding adaptive feeding), hereinafter referred to as: D1-D7.
1. […]
The body weight of the animals when being grouped for administration in each group was recorded. The body weight and the kidney weight at the end of the assay were also recorded, and the kidney coefficient was calculated. The creatinine and urea nitrogen values in the blood samples sent for testing were recorded. […]

The mark [4] stands for this setting: D21, DDP 5/7/7/7 mg/kg i.p. QW×4.
The mark [5] stands for this setting: D25, DDP 5/7/7/7 mg/kg i.p. QW×4.
Setting [6] is: D28, DDP 5/7/7/7 mg/kg i.p. QW×4.
[7] abbreviates: D32, DDP 5/7/7/7 mg/kg i.p. QW×4.
[8] abbreviates: D35, DDP 5/7/7/7 mg/kg i.p. QW×4.
Setting [9] is: D39, DDP 5/7/7/7 mg/kg i.p. QW×4.
Setting [10] is: D42, DDP 5/7/7/7 mg/kg i.p. QW×4.
Where [11] appears, read: D46, DDP 5/7/7/7 mg/kg i.p. QW×4.

For `N.N.[Cl][Pt][Cl]` [DDP, cisplatin], the “Mean animal body weight” value stood at 18.4 ± 0.4 g in data set [1] (D18, DDP 4 mg/kg i.p. QW×4); 18.5 ± 0.3 g in data set [1] (D18, DDP 5/7/7/7 mg/kg i.p. QW×4); 18.3 ± 0.5 g in data set [1] (D21, DDP 4 mg/kg i.p. QW×4); 18.4 ± 0.3 g in data set [1] (setting [4]); 18.1 ± 0.3 g in data set [1] (D25, DDP 4 mg/kg i.p. QW×4); 18.5 ± 0.3 g in data set [1] (setting [5]). The “Mean animal body weight” value in data set [1] (D28, DDP 4 mg/kg i.p. QW×4) is recorded as 18.5 ± 0.3 g; in data set [1] (setting [6]), 18.9 ± 0.3 g; in data set [1] (D32, DDP 4 mg/kg i.p. QW×4), 18.7 ± 0.3 g; in data set [1] (setting [7]), 18.3 ± 0.4 g; in data set [1] (D35, DDP 4 mg/kg i.p. QW×4), 19.3 ± 0.3 g; in data set [1] (setting [8]) it was 19.2 ± 0.4 g. The “Mean animal body weight” value in data set [1] (D39, DDP 4 mg/kg i.p. QW×4) is 19.3 ± 0.3 g; in data set [1] (setting [9]), 18.0 ± 0.3 g; in data set [1] (D42, DDP 4 mg/kg i.p. QW×4), 19.8 ± 0.5 g; in data set [1] (setting [10]), 18.8 ± 0.4 g; in data set [1] (D46, DDP 4 mg/kg i.p. QW×4) it was 19.5 ± 0.5 g; in data set [1] (setting [11]), 17.1 ± 0.5 g. Also, the “body weight loss rate” value is “(0.81%)” in data set [1] (D21, DDP 4 mg/kg i.p. QW×4); “(0.61%)” in data set [1] (setting [4]); “(1.7%)” in data set [1] (D25, DDP 4 mg/kg i.p. QW×4); “(0.00%)” in data set [1] (setting [5]); “(−0.14%)” in data set [1] (D28, DDP 4 mg/kg i.p. QW×4); “(−2.4%)” in data set [1] (setting [6]). Besides, the “body weight loss rate” value is listed as “(−1.4%)” in data set [1] (D32, DDP 4 mg/kg i.p. QW×4); “(1.3%)” in data set [1] (setting [7]); “(−4.9%)” in data set [1] (D35, DDP 4 mg/kg i.p. QW×4); “(−4.0%)” in data set [1] (setting [8]); “(−4.6%)” in data set [1] (D39, DDP 4 mg/kg i.p. QW×4); “(2.5%)” in data set [1] (setting [9]). The “body weight loss rate” value in data set [1] (D42, DDP 4 mg/kg i.p. QW×4) is listed as “(−7.7%)”; in data set [1] (setting [10]), “(−1.5%)”; in data set [1] (D46, DDP 4 mg/kg i.p. QW×4), “(−5.6%)”; in data set [1] (setting [11]), “(7.4%)”.
Take `COC1=C(OC)C(=O)C(CCCCCCCCCCOC(=O)Cc2c(C)n(C(=O)c3ccc(Cl)cc3)c3ccc(OC)cc23)=C(C)C1=O` [compound of formula (I)]: the IC50 in data set [2] (24 h) was 125.3 ± 1.01 µM; in data set [2] (48 h) it was 66.4 ± 0.87 µM; in data set [2] (72 h), 48.5 ± 1.12 µM. Besides, the “pathological damage of kidneys” value in data set [3] (cisplatin 10 mg/kg + R01 6 mg) was “severe renal tubular damage, epithelial cell necrosis and slight protein casts and 2 animals suffered serious kidney damage, and the others were mildly damaged and significantly reduced”; in data set [3] (cisplatin 10 mg/kg + R01 36 mg), “Only one mouse in this group showed slight pathological damage to the kidney; also recorded: basically complete kidney tissue morphology, slight damage”.
